Broadly, the pIC50 is −log10 of the IC50, conventionally taken in molar units. A higher pIC50 goes with a small IC50.

pIC50: −log10 of the molar value. Square brackets hold non-standard residues; d marks the D form. Peptide text beside a SMILES is read from it. * marks the point of attachment. ξ: configuration not given here. Cbz = O=C(OCc1ccccc1)*; Boc = CC(C)(C)OC(=O)*; ξV = CC(C)C(N)C(=O)O; OBn = c1ccc(CO*)cc1; Bn = c1ccc(C*)cc1

Sequence of Beta-secretase 1 (P56817 whole entry): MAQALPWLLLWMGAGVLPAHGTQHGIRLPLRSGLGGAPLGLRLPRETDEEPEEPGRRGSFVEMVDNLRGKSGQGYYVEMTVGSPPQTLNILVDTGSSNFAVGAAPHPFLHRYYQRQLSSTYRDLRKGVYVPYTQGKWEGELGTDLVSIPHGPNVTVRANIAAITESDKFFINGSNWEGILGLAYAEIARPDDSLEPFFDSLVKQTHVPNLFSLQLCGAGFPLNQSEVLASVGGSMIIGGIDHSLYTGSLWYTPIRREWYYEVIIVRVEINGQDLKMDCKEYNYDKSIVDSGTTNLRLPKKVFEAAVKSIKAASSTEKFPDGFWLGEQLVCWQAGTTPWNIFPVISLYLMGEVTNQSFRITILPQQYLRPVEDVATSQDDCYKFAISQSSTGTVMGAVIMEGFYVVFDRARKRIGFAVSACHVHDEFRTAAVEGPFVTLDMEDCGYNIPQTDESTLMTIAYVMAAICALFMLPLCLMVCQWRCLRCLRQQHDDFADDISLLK

This experiment has as its target Beta-secretase 1 (Homo sapiens, UniProt P56817).
Description: Inhibition of BACE1 after 2 hrs by FRET assay
Compound `O=C(O)CC(NNc1nc(NCCO)nc(N2CCOCC2)n1)c1ccccc1` (stereo not given) had a negative logarithm of the IC50 (pIC50) of 3.30.
Next, `CCOc1cc(C2C(C(=O)OCc3ccccc3)=C(C)NC3=C2C(=O)CC(C)(C)C3)cc(Br)c1O` (stereo not given): 4.00; `CN(C)CCNC(=O)c1c[nH]c2ccc(S(=O)(=O)N3CCc4ccccc4C3)cc2c1=O`: 4.00; `COc1cccc2cc(C(=O)Nc3cc(Br)ccc3N3CCOCC3)c(=O)oc12`: 5.00.
Next, `CCc1ccc(N2C(=O)Nc3ccc(Br)cc3C2(O)C(=O)NCC(C)CN2CCC(C)CC2)cc1` (stereo not given): 4.00; `O=C(Nc1ccc(Cl)c(C(F)(F)F)c1)C(NS(=O)(=O)c1cccs1)c1ccccc1` (stereo not given): 4.00; `C[C@@H](NC(=O)c1cc(NS(C)(=O)=O)cc(C(=O)N[C@@H](Cc2ccccc2)[C@H](O)CNC2CC2)c1)c1ccc(F)cc1`: 4.20.
With `Cc1oc(-c2ccccc2)cc1C(=O)NCC(=O)NC(C(=O)O)C(C)C` (stereo not given) the figure was 3.30; with `O=C(O)c1cccc(-c2ccc(/C=N/Nc3nc(Nc4ccccc4)nc(N4CCCCC4)n3)o2)c1`, 4.00; with `O=C(NCc1ccc(Cl)cc1)c1ccc(N2CC3CC(C2)c2cccc(=O)n2C3)c(NS(=O)(=O)c2ccc3c(c2)OCCO3)c1` (stereo not given), 4.00.
`Clc1ccc(/C=N/Nc2nc(Nc3ccccc3)nc(Nc3ccccc3)n2)cc1Cl` gave a pIC50 of 4.00.
On to `COc1cccc(C(=O)OCC(=O)NCc2ccc(Cl)cc2Cl)c1O`, for which the pIC50 was 3.30.
The compound `Cc1ccc(NC(=O)c2cc(NC(=O)CCCC(=O)O)ccc2N2CCOCC2)cc1` had a negative logarithm of the IC50 (pIC50) of 3.30.
Next, `O=C(O)c1cc(-c2ccc(/C=N/Nc3nc(Nc4ccc(F)cc4)nc(N4CCOCC4)n3)o2)ccc1Cl`: 5.15; `Clc1nc(NCCN2CCOCC2)nc(NCc2ccc(I)cc2)n1`: 4.00; `Clc1ccc(/C=N/Nc2nc(Nc3cccc(Br)c3)nc(N3CCOCC3)n2)cc1`: 4.00.
`CCOc1nc(NCCN2CCOCC2)nc(NNc2ccc(I)cc2C)n1` had a negative logarithm of the IC50 (pIC50) of 4.92.
Next, `CC(C)S(=O)(=O)N(C)c1cc(C(=O)N[C@@H](Cc2ccccc2)[C@H](O)CNC2CC2)cc(C(=O)N[C@H](C)c2ccccc2)c1`: 4.39; `CCNC[C@@H](O)[C@H](Cc1ccccc1)NC(=O)c1cc(C(=O)N[C@H](C)c2ccc(F)cc2)cc(N(C)S(C)(=O)=O)c1`: 4.82; `C[C@H](NC(=O)c1cc(OCC(=O)NCCCCCN)cc(OS(=O)(=O)Cc2ccccc2)c1)c1ccccc1`: 4.00.
With `O=C(CC1Sc2ccccc2NC1=O)Nc1ccccc1SC(F)(F)C(F)(F)C(F)(F)F` (stereo not given) the figure was 4.00.
The compound `Cc1ccc(Nc2nc(N/N=C/c3ccc(Cl)c(Cl)c3)nc(N3CCOCC3)n2)c(Cl)c1` showed a pIC50 of 4.00.
With `O=C(Nc1cc(Br)ccc1N1CCOCC1)c1cc2ccccc2oc1=O` the figure was 5.00; with `NS(=O)(=O)c1ccc(NC(=O)CSc2nnc(-c3ccccc3)c(-c3ccccc3)n2)cc1`, 4.00.
Next, `CCc1ccc(Sc2c(N)c3c(c(N)c2Sc2ccc(CC)cc2)C(=O)c2ccccc2C3=O)cc1`: 3.60; `CCN1CCCC1CNC(=O)c1ccc2c(=O)n(Cc3ccc(Cl)cc3)c(=S)[nH]c2c1` (stereo not given): 4.00; `Cc1ccc(C)c(Nc2nc(N/N=C/c3cc(Br)c(O)c(Br)c3C)nc(N3CCOCC3)n2)c1`: 4.09.
Next, `COc1cc(/C=N/Nc2nc(Nc3ccc(F)cc3)nc(N3CCCCC3)n2)ccc1OCC(=O)O`: 4.00; `O=C(NCc1ccccc1)c1c[nH]c2ccc(S(=O)(=O)NC3CCCCNC3=O)cc2c1=O` (stereo not given): 4.00; `Cc1ccc(CNC(=O)c2ccc(N3CC4CC(C3)c3cccc(=O)n3C4)c(NS(=O)(=O)c3ccc4c(c3)OCCO4)c2)cc1` (stereo not given): 4.00.
The compound `O=C(NCc1ccc(F)cc1)c1ccc(N2CC3CC(C2)c2cccc(=O)n2C3)c(NS(=O)(=O)c2ccc3c(c2)OCCO3)c1` (stereo not given) showed a negative logarithm of the IC50 (pIC50) of 4.00.
With `COc1cc2[nH]c(=O)n(Cc3ccc(C(=O)NCc4ccc(C)cc4)cc3)c(=O)c2cc1OC` the figure was 4.00; with `C[C@@H](NC(=O)c1cc(C(=O)N[C@@H](Cc2ccccc2)[C@H](O)CN)cc(N(C)S(C)(=O)=O)c1)c1ccc(F)cc1`, 4.64; with `COc1cc(/C=N/Nc2nc(Nc3ccccc3)nc(N3CCOCC3)n2)cc(Br)c1O`, 4.00.
With `O=C(NCCc1ccc(Cl)cc1)C1CCC(CNc2nc(=S)[nH]c3ccccc23)CC1` (stereo not given) the figure was 4.00; with `O=C(O)c1cc(-c2ccc(/C=N/Nc3nc(Nc4ccc(F)cc4)nc(N4CCCCC4)n3)o2)ccc1O`, 4.55.
With `C=CN(C=C)C(=O)c1cc(OCC(=O)NCCCCCN)cc(C(=O)N[C@H](C)c2ccccc2)c1` the figure was 4.60.
As for `O=C(Nc1cc(Br)ccc1N1CCN(Cc2ccccc2)CC1)c1cccc2ccccc12`, the negative logarithm of the IC50 (pIC50) was 5.30.
Consider `O=C(Nc1ccc(Cl)cc1C(=O)c1ccccc1)c1ccc(Nc2nc(-c3ccccc3)c3cc(Br)ccc3n2)cc1`, for which the pIC50 was 4.00.
Next, `CC(C)(C)OC(=O)N1CCN(c2ccc(Br)cc2NC(=O)c2cccc3ccccc23)CC1`: 6.00; `O=C(O)c1cc(-c2ccc(/C=N/Nc3nc(Nc4ccccc4)nc(N4CCCCC4)n3)o2)ccc1Cl`: 3.82.
Next, `C[C@@H](NC(=O)c1cc(C(=O)N[C@@H](Cc2ccccc2)[C@H](O)CNC(C)(C)C)cc(N(C)S(C)(=O)=O)c1)c1ccc(F)cc1`: 4.82; `CC1CCCCN1CCNC(=O)c1cc(=O)[nH]c2ccc(S(=O)(=O)N3CCCCC3)cc12` (stereo not given): 4.00; `CC(C)C(NC(=O)CNC(=O)CNC(=O)OCc1ccccc1)C(=O)O` (stereo not drawn) (Cbz-Gly-Gly-[ξV]-OH): 3.30.
With `O=C(NCc1ccccc1)c1ccc(N2CC3CC(C2)c2cccc(=O)n2C3)c(NS(=O)(=O)c2ccc3c(c2)OCCO3)c1` (stereo not given) the figure was 4.00; with `O=C1CSC(c2ccc(Cl)cc2)N1Nc1nc(Nc2ccccc2)nc(N2CCCCC2)n1` (stereo not given), 4.00.
As for `FC(F)(Cl)Oc1ccc(Nc2nc(NCc3ccccc3)nc(N3CCCCC3)n2)cc1`, the negative logarithm of the IC50 (pIC50) was 4.00.
Next, `Oc1c(I)cc(I)cc1/C=N/Nc1nc(NCc2ccccc2)nc(N2CCOCC2)n1`: 4.00; `COc1ccc(OC)c(/N=c2\oc3c(C)ncc(CO)c3cc2C(=O)Nc2ccc(Cl)cc2)c1`: 4.00.
With `Cc1ccc(Nc2nc(N/N=C/c3cccc(Br)c3)nc(N3CCOCC3)n2)cc1` the figure was 4.00.
`COc1ccc(-n2nc(C(=O)NCC(=O)Nc3cccc(C)n3)c3ccccc3c2=O)cc1Cl` had a negative-log IC50 (pIC50) of 4.00.
With `CC1CCN(S(=O)(=O)c2ccc3[nH]c(=O)cc(C(=O)NCCCN4CCCC4)c3c2)CC1` the figure was 4.00; with `Cc1ccc(Nc2nc(CN3CCOCC3)nc(N/N=C/c3cc(Br)cc(Br)c3O)n2)cc1`, 4.32.
Turning to `O=C(NCCc1ccccc1)c1c[nH]c2ccc(S(=O)(=O)N3CCc4ccccc4C3)cc2c1=O`, the negative logarithm of the IC50 (pIC50) is 4.00.
Next, `O=C(O)CCCNC(=O)CCCCC(=O)C(c1ccccc1)c1ccccc1`: 3.30; `CCOc1cc(/C=N\NC(=O)COc2ccc(C)cc2)cc(I)c1O`: 4.00.
With `CCN1CCCC1CNC(=O)c1ccc2c(=O)n(Cc3cccc(Br)c3)c(=S)[nH]c2c1` (stereo not given) the figure was 4.00.
Next, `C[C@@H](NC(=O)c1cc(C(=O)N[C@@H](Cc2ccccc2)[C@H](O)CNC2CC2)cc(N(C)S(=O)(=O)N(C)C)c1)c1ccccc1`: 4.85.
The compound `CC(C)(C)OC(=O)NC(CC(=O)OCc1ccccc1)C(=O)NC(COCc1ccccc1)C(=O)NCC(=O)OCc1ccccc1` (stereo not given) (Boc-Asp(OBn)-Ser(Bn)-Gly-OBn; configuration not given here) had a pIC50 of 4.00.
With `COc1cc(/C=N\NC(=O)c2ccccc2OCCOc2ccccc2)cc(Br)c1O` the figure was 3.30; with `O=C(Nc1ccccc1C(=O)NCC(O)CNC(=O)c1ccccc1NC(=O)c1ccccc1)c1ccccc1`, 4.00; with `CC1CCCCN1CCNC(=O)c1cc(=O)[nH]c2ccc(S(=O)(=O)N3CCOCC3)cc12` (stereo not given), 4.00.
With `CC(NC(=O)NCCNC(=O)NC(C)C(=O)O)C(=O)O` (stereo not given) the figure was 3.30; with `CCOC(=O)C(Cc1ccc(O)cc1)NS(=O)(=O)c1ccc2c(c1)C(=O)c1ccccc1C2=O` (stereo not given), 4.00.
The compound `CCc1ccc(N2C(=O)Nc3ccc(Br)cc3C2(O)C(=O)NCc2ccccc2)cc1` (stereo not given) had a negative-log IC50 (pIC50) of 4.00.
With `CSc1ccc(C(O)C(CO)NC(=O)c2cc3c(n(-c4ccc(Cl)cc4)c2=O)CC(C)(C)CC3=O)cc1` (stereo not given) the figure was 4.00.
With `CCCc1cc(=O)oc2cc(OCC(=O)NCC(=O)NCC(=O)O)ccc12` the figure was 3.30.
Next, `Cc1cccc(N(C)S(=O)(=O)c2ccc3ncc(C(=O)NCCN4CCOCC4)c(O)c3c2)c1`: 4.00; `Cc1cc(Br)c(Nc2nc(CN3CCOCC3)nc(N/N=C/c3cc(I)cc(C)c3O)n2)cc1Cl`: 4.00; `CCSc1scc(CC)c1C1C(C(=O)Nc2ccc(Br)cn2)=C(C)NC2=C1C(=O)CC(C)(C)C2` (stereo not given): 4.00.
`CCCCCCc1nc2ccccc2c(=O)n1NC(O)c1c(O)c2cccc3c2n(c1=O)CCC3` (stereo not given) gave a pIC50 of 4.00.
With `COc1cccc2cc(C(=O)Nc3cc(Br)ccc3N3CCN(C(=O)OC(C)(C)C)CC3)c(=O)oc12` the figure was 6.00; with `CCN1CCN(CCNC(=O)c2ccc3c(=O)n(Cc4ccc(Cl)cc4)c(=S)[nH]c3c2)CC1`, 4.00; with `O=C(CN1CCN(Cc2ccccc2)CC1)N/N=C\c1cc(I)cc(I)c1O`, 4.00.
With `NS(=O)(=O)c1ccc(CCNC(=O)CCc2nc3sc4c(c3c(=O)[nH]2)CCCC4)cc1` the figure was 4.00; with `Cc1ccc(C)c(Nc2nc(N/N=C/c3cc(Br)cc(Br)c3O)nc(N3CCOCC3)n2)c1`, 4.00; with `C[C@@H](NC(=O)c1cc(C(=O)N[C@@H](Cc2ccccc2)[C@H](O)CNC2CC2)cc(N(C)S(C)(=O)=O)c1)c1ccc(F)cc1`, 5.00.
Next, `CN(C)c1nc(N/N=C/c2cc(I)cc(I)c2O)nc(N2CCOCC2)n1`: 4.00; `CC(=O)Nc1cc(C(=O)NCc2cc(F)cc(Cl)c2)ccc1Sc1ccc(Cl)cc1`: 4.00; `CCSc1sc(CC)cc1C1C(C(=O)Nc2ccc(C)cn2)=C(C)NC2=C1C(=O)CC(C)(C)C2` (stereo not given): 4.00.

Source of the values: ChEMBL document CHEMBL1165911, “Elaborate ligand-based pharmacophore exploration and QSAR analysis guide the synthesis of novel pyridinium-based potent beta-secretase inhibitory leads” (Bioorg Med Chem, 2010).
